Experimental findings from PubChem BioAssay AID1996 are described below.

Converted amounts (≈) assume the structure as drawn. Where only a bound is given, the exact number is not on record here.

The conditions of this data set: buffer; pH 7.4; 200.0 µM.
Regarding `O=C(Nc1nccs1)c1c(O)c2c(n(Cc3ccco3)c1=O)CCCC2`, the solubility (kinetic) is below 0.3 µg/mL. The same measure for `COc1ccc(CN(C)C(C)C(=O)Nc2cccc3ccccc23)cc1` (stereo not drawn): 7.8 µg/mL (≈ 22.4 µM); for `CN1CC(C(=O)c2ccc(F)cc2)C(c2c(F)cccc2Cl)C1` (stereo not drawn): 40.9 µg/mL (≈ 122 µM). `COc1ccc(NC(=O)CNC(=O)Cc2ccccc2)cc1` returned a solubility (kinetic) of 10.6 µg/mL (≈ 35.5 µM). The figure for `CC1(C)OC(=O)C(=Cc2ccc[nH]2)C(=O)O1` is 25.4 µg/mL (≈ 115 µM); for `COc1ccccc1/C=[N+](\[O-])C1SC(=S)N(C)C1(C)C` (stereo not drawn) it is above 46.6 µg/mL. The figure for `O=C1c2ccccc2NC(c2ccc(F)cc2)N1Cc1ccccc1` (stereo not drawn) is 1.4 µg/mL (≈ 4.21 µM).

The molecule `Cc1ccc(SCC(=O)O/N=C(\N)c2cccnc2)cc1` had a solubility (kinetic) of 40 µg/mL (≈ 133 µM). This solubility kinetic is about 29-fold higher than that of the molecule before. `CC(=O)Nc1ccc(C(=O)N2CCc3cc4c(cc3C2C)OCCCO4)cc1` (stereo not drawn) had a kinetic solubility above 57.1 µg/mL. The same measure for `CCN1C(=O)c2ccc(C(=O)Nc3c(C)cc(C)cc3C)cc2C1=O`: below 0.4 µg/mL; for `O=C(COC(=O)C1CC1)NC(=O)c1ccccc1`: above 37.1 µg/mL. The same measure for `COc1ccc(N2CCN(C(=O)c3cc(C)oc3C)CC2)cc1`: 42.2 µg/mL (≈ 134 µM); for `O=[N+]([O-])c1cnc(Nc2ccccc2)nc1Nc1ccccc1`: 0.2 µg/mL (≈ 0.651 µM).

In turn, `O=C(NCC1CCCO1)c1cc2c(=O)[nH]c3ccccc3c2s1` (stereo not drawn) came in with a kinetic solubility of 2.6 µg/mL (≈ 7.92 µM). The same measure for `Cc1cccc(C(=O)Nc2ccc3c(c2)C(=O)N(CC(C)C)C3=O)c1`: below 0.4 µg/mL; for `Cc1ccc(NC(=S)N2CCN(c3ccccn3)CC2)cc1C`: 1.1 µg/mL (≈ 3.37 µM); for `Nc1cc(N)nc(SCC(=O)NCC(=O)Nc2ccc(F)c(F)c2F)n1`: 51.3 µg/mL (≈ 133 µM). Regarding `Cc1cc(C)cc(NC(=O)Nc2cccc(S(N)(=O)=O)c2)c1`, the kinetic solubility came to 2.5 µg/mL (≈ 7.83 µM). The same measure for `Cc1ccc(C(=O)NCCC(=O)N2CCOCC2)cc1`: above 41.5 µg/mL; for `O=C(c1ccc(Br)cc1)N1CCCc2ccccc21`: 14 µg/mL (≈ 44.3 µM). The same measure for `Cc1c(C)n(CCCN(C)C)c2ncnc(Nc3ccc(F)cc3)c12`: 48.7 µg/mL (≈ 143 µM). The same measure for `CCCNC(=O)c1cc2cc([N+](=O)[O-])ccc2s1`: 1.4 µg/mL (≈ 5.3 µM); for `CCc1ccc(Nc2nc(C)cc(C)c2C(N)=O)cc1`: above 40.4 µg/mL. For the molecule `Cc1ccc2nc(-c3ccccc3)oc(=O)c2c1`, the solubility (kinetic) amounted to 0.9 µg/mL (≈ 3.79 µM). For `CC(C)Cc1ccc(C(C)C(=N)N)cc1.Cl` (stereo not drawn), the kinetic solubility was above 36.1 µg/mL.

In turn, `CC(C)C(=O)Nc1nc2cc3c(cc2s1)OCCO3` registered a solubility (kinetic) of 37.4 µg/mL (≈ 134 µM). In turn, `CCOc1cccc2cc(C(=O)N3CCOCC3)c(=O)oc12` came in with a solubility (kinetic) above 45.5 µg/mL.

Molecule `N#Cc1ccc(C(=O)OCC(=O)N2CCCC2)cc1` showed a solubility (kinetic) above 38.7 µg/mL. The figure for `O=C(CNS(=O)(=O)c1ccc(Cl)c(C(F)(F)F)c1)NC1CCCCC1` is 12.6 µg/mL (≈ 31.6 µM). The figure for `O=c1c(Cc2ccccc2)c(O)ccn1Cc1ccco1` is 25.9 µg/mL (≈ 92.1 µM). The same measure for `Cn1c(/C=C/c2ccc(Cl)cc2)c([N+](=O)[O-])c(=O)n(C)c1=O`: 5 µg/mL (≈ 15.5 µM); for `Cc1ccc(NC(=O)c2sccc2C)nc1`: 34.8 µg/mL (≈ 150 µM). `O=[N+]([O-])c1ccc(CSc2ccccn2)cc1`: the solubility (kinetic) turned out to be 15.2 µg/mL (≈ 61.7 µM).

`COc1ccc(-n2c(C)cc(C(=O)CN3CCC(C)CC3)c2C)cc1` showed a kinetic solubility of 46.3 µg/mL (≈ 136 µM). The same measure for `Nc1nc2ccccc2n1CCOc1ccc(Cl)cc1`: 25.8 µg/mL (≈ 89.7 µM); for `CCCN(C(=O)CCc1ccc(OC)cc1)c1c(N)n(Cc2ccccc2)c(=O)[nH]c1=O`: 8.9 µg/mL (≈ 20.4 µM); for `CN(C)c1ccc(/C=C/c2nc3ccccc3c(=O)n2CCO)cc1`: 40.7 µg/mL (≈ 121 µM).

Regarding `Cc1ccc(S(=O)(=O)Nc2c(C)nn(C)c2C)c(C)c1`, the kinetic solubility was above 44 µg/mL.

As for `O=C(Nc1cccc(Cl)c1)Nc1cnccn1`, the solubility (kinetic) came out at 1.3 µg/mL (≈ 5.23 µM). The figure for `N#CC(CCN1CCOCC1)(c1ccccc1)c1ccccc1` is 43.1 µg/mL (≈ 141 µM); for `Cn1c(=O)[nH]c2ncn(C)c2c1=O` it is above 27 µg/mL; for `COCCCNC(=O)c1ccccc1C(F)(F)F` it is above 39.2 µg/mL. The same measure for `CC(=O)N1CCc2[nH]c3ccc(C)cc3c2C1`: above 34.2 µg/mL. The figure for `CCOc1ccc(S(=O)(=O)NC(C)C(=O)NCc2ccncc2)cc1` (stereo not drawn) is above 54.5 µg/mL.

With `COc1ccc(OC)c(C(=O)Cn2cnc3ccccc3c2=O)c1`, the solubility (kinetic) stood at 0.9 µg/mL (≈ 2.77 µM).

`COc1ccc(C(CNC(=O)c2cc(S(=O)(=O)NCc3ccco3)ccc2C)N(C)C)cc1` (stereo not drawn): the solubility (kinetic) is above 70.7 µg/mL. The molecule `CC(C)(C)c1ccc(N2C(=N)SCC2=O)cc1` returned a kinetic solubility of 15.8 µg/mL (≈ 63.6 µM). Turning to `CCN(C(=O)COc1nc(C)cc(C)c1C#N)c1ccccc1`, the kinetic solubility was determined as 9.3 µg/mL (≈ 30.1 µM).

For `O=C(Nc1cc2c3c(c1)CC(=O)N3CCC2)C1CC1`, the kinetic solubility was above 38.4 µg/mL. The same measure for `O=C(NCc1ccccc1)c1cccn(Cc2ccccc2)c1=O`: 45.9 µg/mL (≈ 144 µM); for `Cc1ccc(NC(=O)NCc2cccnc2)cc1Cl`: 39.7 µg/mL (≈ 144 µM); for `Cc1ccc(C(=O)N/C(=C\c2ccco2)C(=O)N2CC(C)OC(C)C2)cc1C` (stereo not drawn): above 57.4 µg/mL. `Cc1ccc2nc(-c3ccncc3)cc(C(=O)Nc3ccncc3)c2c1` registered a kinetic solubility of 3.5 µg/mL (≈ 10.3 µM).

Consider `O=S(=O)(Nc1ccncc1)c1ccc(Cl)c(Cl)c1`, for which the kinetic solubility was found to be 3.7 µg/mL (≈ 12.2 µM).

`O=C(c1ccc2c(c1)OCO2)N1CCC(Cc2ccccc2)CC1` registered a kinetic solubility of 41.6 µg/mL (≈ 129 µM).

For the molecule `CSc1ncccc1C(=O)OCC(=O)NCCc1ccccc1`, the kinetic solubility amounted to 27.9 µg/mL (≈ 84.4 µM). The solubility kinetic values of the last two molecules are within 1.5-fold of each other. The same measure for `Cc1cc(C(=O)NCc2ccco2)c2cc(F)ccc2n1`: 42.3 µg/mL (≈ 149 µM); for `COc1ccccc1NS(=O)(=O)c1ccc2[nH]c(=S)oc2c1`: above 50.5 µg/mL; for `COc1ccc(Cc2nc3ccccc3[nH]2)cc1OC`: above 40.2 µg/mL. The figure for `Cc1c(Cc2ccccc2)c(=O)n2c([nH]c3ccccc32)c1C#N` is below 0.2 µg/mL; for `CCC(C)(C(=O)NC1CCCC1)N(C)C(=O)c1ccccn1` (stereo not drawn) it is above 45.5 µg/mL.

`c1ccc(-n2cnc3ccccc32)nc1` yielded a kinetic solubility of 26.3 µg/mL (≈ 135 µM). The figure for `O=S(=O)(c1ccc(Cl)cc1)N1CCN(Cc2cccnc2)CC1` is 49.4 µg/mL (≈ 140 µM); for `NC(=O)c1ccc(NC(=O)COC(=O)CC23CC4CC(CC(Br)(C4)C2)C3)cc1` it is above 67.4 µg/mL; for `Cc1cc(C)cc(OCC(=O)OCc2cc([N+](=O)[O-])cc3c2OCOC3)c1` it is 3.9 µg/mL (≈ 10.4 µM). The same measure for `Cc1cccc(C)c1OCC(=O)Nc1ccc(N2CCOCC2)cc1`: 6 µg/mL (≈ 17.6 µM). The same measure for `CC(Cc1ccccc1)NC(=O)c1cc([N+](=O)[O-])ccc1Cl` (stereo not drawn): 10 µg/mL (≈ 31.4 µM); for `Cc1sc2nc(SCCO)n(-c3ccccc3)c(=O)c2c1C`: 1.4 µg/mL (≈ 4.21 µM); for `CC1(C)C(=O)Nc2ccccc2N1C(=O)COC(=O)Cc1ccc(Cl)c(Cl)c1`: 10.1 µg/mL (≈ 24 µM).

`CCOC(=O)CNC(=O)CSc1nc(-c2ccc(OC)cc2)ns1`: the solubility (kinetic) is 2.8 µg/mL (≈ 7.62 µM). The same measure for `CC(=O)c1c(O)c2cccc3c2n(c1=O)CCC3`: above 36.5 µg/mL. The same measure for `O=C(CCCOc1ccc(Cl)cc1Cl)Nc1ccccc1C(=O)O`: above 55.2 µg/mL.

Molecule `CC(NC(=O)Cc1ccc([N+](=O)[O-])cc1)c1ccc2c(c1)OCO2` (stereo not drawn) had a solubility (kinetic) of 7.9 µg/mL (≈ 24.1 µM).

Consider `O=C(CCNC(=O)c1ccccc1)NNC(=O)c1ccccc1Br`, for which the kinetic solubility was above 58.5 µg/mL.

For the molecule `O=C(OCC(=O)N1CCCC1)c1cccc(Br)c1`, the kinetic solubility was above 46.8 µg/mL. The same measure for `O=C(COC(=O)c1ccc(Cl)nc1)NC1CCCCCC1`: above 46.6 µg/mL; for `O=C(NNC(=O)c1ccncc1)Nc1cccc(C(F)(F)F)c1`: above 48.6 µg/mL; for `CN(CC(=O)Nc1ccc(F)cc1)C(=O)c1ccccc1OCc1ccc(F)cc1`: 30.4 µg/mL (≈ 74.1 µM).

Consider `CCOC(=O)c1cnc2c(ccc3ccccc32)c1NCCCN(C)C`, for which the kinetic solubility was 46.1 µg/mL (≈ 131 µM). `Cc1nn(-c2ccccc2)c(C)c1CN` returned a solubility (kinetic) above 30.2 µg/mL.

Regarding `CN(CC(=O)Nc1ccccc1C(=O)Nc1ccccc1)C1CCCCC1`, the kinetic solubility was 2.4 µg/mL (≈ 6.57 µM). `CC(C)CNC(=O)N[C@@H](CC(C)C)C(=O)O` gave a kinetic solubility above 34.5 µg/mL. `CCOc1ccc(NC(=O)CCN2C(=O)c3cccc([N+](=O)[O-])c3C2=O)cc1`: the kinetic solubility is 16.4 µg/mL (≈ 42.8 µM). The same measure for `CCC(C)C(Nc1ncnc2scc(-c3ccccc3)c12)C(=O)O` (stereo not drawn): above 51.2 µg/mL. The same measure for `O=C(Oc1coc(CSc2ncccn2)cc1=O)c1ccco1`: 46.5 µg/mL (≈ 141 µM); for `O=C(Nc1ccc(S(=O)(=O)N2CCCCC2)cc1)c1ccc(Cl)nc1`: 7.6 µg/mL (≈ 20 µM); for `Clc1nc(CN2CCOCC2)nc2sc3c(c12)CCC3`: 44.5 µg/mL (≈ 144 µM). The same measure for `COc1ccc(OC)c(CNc2ccc3c(c2)nc(C)n3C)c1`: 37.1 µg/mL (≈ 119 µM). As to `CCc1ccc(S(=O)(=O)Nc2ccc(Cl)cn2)cc1`, the solubility (kinetic) stood at 8.3 µg/mL (≈ 28 µM).

`COc1cc(NC(=O)c2ccc(S(=O)(=O)N(C)c3ccccc3OC)cc2)cc(OC)c1` showed a kinetic solubility of 4.5 µg/mL (≈ 9.86 µM).

For the molecule `S=c1[nH]c2ccc(Cc3ccc4[nH]c(=S)[nH]c4c3)cc2[nH]1`, the solubility (kinetic) was 1.7 µg/mL (≈ 5.44 µM). The same measure for `Cc1cccc(NC(=O)CCCc2ccccc2)c1C`: below 0.6 µg/mL; for `O=C1CCC(=O)N1CCSC(=S)N1CCSCC1`: above 45.7 µg/mL; for `Cc1ccc(NC(=O)Nc2cccc(F)c2)nc1`: 1.3 µg/mL (≈ 5.3 µM). The same measure for `Cc1ccccc1Nc1nc(N)nc(COC(=O)c2ccco2)n1`: above 48.8 µg/mL; for `COc1ccc(C(=O)NC(=S)SCC(=O)O)cc1`: above 42.8 µg/mL. The same measure for `COc1ccc(OC)c(NC(=O)Nc2ccc3c(c2)CCC3)c1`: 1.3 µg/mL (≈ 4.16 µM); for `CN1CCN(C(=O)Nc2ccccc2)CC1.O=C(O)C(=O)O`: above 46.4 µg/mL.

Molecule `CCOC(=O)COc1ccc(S(=O)(=O)NC2CC2)cc1` returned a solubility (kinetic) above 44.9 µg/mL. The same measure for `CCOC(=O)Cc1csc(NC(=O)COc2ccc(C)cc2)n1`: above 50.2 µg/mL; for `COc1ccc(C(=O)NCCN2CCCC2)cc1.Cl`: above 42.7 µg/mL; for `CCCCC(=O)OCc1nc2ccccc2s1`: 11.2 µg/mL (≈ 44.9 µM). The figure for `CCc1noc(C)c1C(=O)NCCc1ccccc1` is above 38.7 µg/mL.

As a reminder, the solubility (kinetic) is the concentration staying in solution when a stock, usually in DMSO, is diluted into the medium.
